Measured values reported in patent US12583825B2, “Benzo[h]quinazolin-4-amine and thieno[3,2-h]quinazolin-4-amine derivatives for the treatment of cancer” (Redona Therapeutics, Inc., priority 2020, dated 2026).

Experiments:
recombinant human CLK3 = target: T1, recombinant human CLK3 (Homo sapiens, UniProt P49761); assay: CLK3 kinase assay (LANCE Ultra); format: biochemical; conditions: 0.5 nM CLK3, 300 μM ATP, 3 hours at 30° C.
T1 construct: purchased Thermo Fisher Scientific PV3826
Method: CLK3 kinase activity was measured using the LANCE® Ultra technology (PerkinElmer) essentially as recommended by the supplier. Briefly, 2.5 μL of test sample at 4× the desired final concentration in 4% DMSO were dispensed into white, low volume, round bottom, 384 well plates (Corning, cat. no. 4512). 5 μL of a mixture containing recombinant human CLK3 (Thermo Fisher Scientific, cat. no. PV3826) and the labeled peptide substrate ULight™-CREBtide (PerkinElmer, cat. no. TRF0107) prepared in 1.33× kinase buffer (Thermo Fisher Scientific, cat. no. PV3189) were then added. Finally, the reactions were started by adding 2.5 μL of a 4× solution of ATP in kinase buffer. The plates were sealed with adhesive foils and incubated for 3 hours at 30° C. in the dark. The final concentrations of CLK3, ULight™—CREBtide, and ATP were 0.5 nM, 50 nM, and 300 μM, respectively. 5 μL of 40 mM EDTA were then added to terminate the reactions. The Eu-anti-phospho-CREB antibody (PerkinElmer, cat. no. TRF0200) diluted in LANCE® detection buffer (PerkinElmer, cat. no. CR97) was then added to a final concentration of 2 nM and the reactions were incubated for 1 hour at room temperature in the dark. The signals were measured using a Synergy 4 reader (BioTek) with a 320/80 nm filter for the excitation and 620/10 nm and 665/8 nm filters for the donor and acceptor emission, respectively. […] IC50 values were calculated by fitting the concentration-response data to a sigmoidal 4-parameter logistic model.

MDA-MB-231 cells = assay: MDA-MB-231 proliferation assay; format: cell-based; conditions: Homo sapiens, 72 hours, YO-PRO-1 readout
Method: MDA-MB-231 Proliferation Assay
MDA-MB-231 cells were cultivated in DMEM High Glucose (4.5 g/L) with L-Glutamine (BioConcept, cat. no. 1-26F03-I) supplemented with 1% Na-pyruvate (Sigma, cat. no. S8636), 1% Penicillin-Streptomycin (BioConcept, cat. no. 4-01F00H), and 10% FBS (Sigma, cat. no. F9665) using standard techniques. Cells were seeded in black, clear-bottom 384 well plates for tissue culture (Greiner Bio-One, cat. no. 781091) at a density of 750 cells per well in 20 μL medium and the plates were incubated overnight at 37° C. with 5% CO2 prior to treatment. Experimental compounds were serially diluted in DMSO to 200× the desired final concentrations. The solutions were then diluted 1:40 with culture medium and 5 μL aliquots were mixed into the wells containing the cells. The final concentration of DMSO was 0.5%. The plates were incubated for 72 hours and cell numbers were then measured using YO-PRO™-1 Iodide (ThermoFisher Scientific, cat. no. Y3603) essentially as recommended by the manufacturer. […] The plates were incubated at room temperature in the dark for 30 minutes. Fluorescence intensity signals were then measured on a Synergy 4 reader (BioTek) using 485/20 nm and 530/25 nm filters for the excitation and emission, respectively. Relative proliferation values were calculated by normalizing the raw data using DMSO-treated cells (100% proliferation) and the signals obtained from cells that were evaluated at the time of compound addition (0% proliferation). The concentration-response data were fitted to a sigmoidal 4-parameter logistic model with the maximum constrained to 100%.

T1 sequence (P49761 whole entry): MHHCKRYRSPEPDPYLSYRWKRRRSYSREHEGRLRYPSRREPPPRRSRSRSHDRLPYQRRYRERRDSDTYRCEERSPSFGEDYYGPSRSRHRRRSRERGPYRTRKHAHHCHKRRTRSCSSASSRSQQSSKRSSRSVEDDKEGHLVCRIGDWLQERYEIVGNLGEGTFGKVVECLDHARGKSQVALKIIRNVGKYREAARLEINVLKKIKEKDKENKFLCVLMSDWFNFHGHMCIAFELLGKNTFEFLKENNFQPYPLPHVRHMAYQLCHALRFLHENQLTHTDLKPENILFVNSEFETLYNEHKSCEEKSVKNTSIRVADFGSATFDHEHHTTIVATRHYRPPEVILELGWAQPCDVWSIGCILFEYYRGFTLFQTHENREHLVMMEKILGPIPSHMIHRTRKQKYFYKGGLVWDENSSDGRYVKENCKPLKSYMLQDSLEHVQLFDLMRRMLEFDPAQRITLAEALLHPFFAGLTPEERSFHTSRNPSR

Compound | IC50 (recombinant human CLK3) | GI50 (MDA-MB-231 cells)
CN1C[C@@H](CO/N=C2\c3cc(Cl)ccc3-c3ncnc(N)c3C2(C)C)OC1=O [Example 52, (5S)-5-[[(Z)-(4-amino-8-chloro-5,5-dimethyl-benzo[h]quinazolin-6-ylidene)amino]oxymethyl]-3-methyl-oxazolidin-2-one] | < 1.5 nM | 445 nM
CN1C[C@@H](CO/N=C2\c3cc(Br)ccc3-c3ncnc(N)c3C2(C)C)OC1=O [Example 53, (5S)-5-[[(Z)-(4-amino-8-bromo-5,5-dimethyl-benzo[h]quinazolin-6-ylidene)amino]oxymethyl]-3-methyl-oxazolidin-2-one] | < 1.5 nM | 194 nM
CC1(C)/C(=N/OCCC#N)c2cc(O[C@H]3CC[C@H](N)CC3)ccc2-c2ncnc(N)c21 [Example 55, 3-[(Z)-[4-amino-8-(trans-4-aminocyclohexoxy)-5,5-dimethyl-benzo[h]quinazolin-6-ylidene]amino]oxypropanenitrile] | 15.6 nM | 169 nM
CN1C[C@@H](CO/N=C2\c3cc(O[C@H]4CC[C@H](N)CC4)ccc3-c3ncnc(N)c3C2(C)C)OC1=O [Example 56, (5S)-5-[[(Z)-[4-amino-8-(trans-4-aminocyclohexoxy)-5,5-dimethyl-benzo[h]quinazolin-6-ylidene]amino]oxymethyl]-3-methyl-oxazolidin-2-one] | < 1.5 nM | 332 nM
CO/N=C1\c2cc(O[C@@H]3CC[C@@H](N)[C@@H](F)C3)ccc2-c2ncnc(N)c2C1(C)C [Example 57, (6Z)-6-methoxyimino-5,5-dimethyl-8-[-(1R,3S,4R)-4-amino-3-fluoro-cyclohexoxy]benzo[h]quinazolin-4-amine] | 2.76 nM | 207 nM
COc1ccc2c(c1)/C(=N\OCCN)C(C)(C)c1c(N)ncnc1-2 [Example 58, (6Z)-6-(2-aminoethoxyimino)-8-methoxy-5,5-dimethyl-benzo[h]quinazolin-4-amine] | 90.4 nM | > 2000 nM
COc1ccc2c(c1)/C(=N\OCCCN)C(C)(C)c1c(N)ncnc1-2 [Example 59, (6Z)-6-(3-aminopropoxyimino)-8-methoxy-5,5-dimethyl-benzo[h]quinazolin-4-amine] | 265 nM | > 2000 nM
CC1(C)/C(=N\OCCC#N)c2cc(O[C@H]3CC[C@H](N)CC3)ccc2-c2ncnc(N)c21 [Example 60, 3-[(E)-[4-amino-8-(trans-4-aminocyclohexoxy)-5,5-dimethyl-benzo[h]quinazolin-6-ylidene]amino]oxypropanenitrile] | 116 nM | > 2000 nM
CO/N=C1\c2cc(O)ccc2-c2ncnc(N)c2C1(C)C [Example 61, (6Z)-4-amino-6-methoxyimino-5,5-dimethyl-benzo[h]quinazolin-8-ol] | 53.6 nM | > 2000 nM
CO/N=C1\c2cc(OC3CCNCC3)ccc2-c2ncnc(N)c2C1(C)C [Example 66, (6Z)-6-methoxyimino-5,5-dimethyl-8-(4-piperidyloxy)benzo[h]quinazolin-4-amine] | 13 nM | 1750 nM
COc1ccc2c(c1)/C(=N\OC[C@@H]1CNC(=O)C1)C(C)(C)c1c(N)ncnc1-2 [Example 72, (4S)-4-[[(Z)-(4-amino-8-methoxy-5,5-dimethyl-benzo[h]quinazolin-6-ylidene)amino]oxymethyl]pyrrolidin-2-one] | 79.3 nM | > 2000 nM
COc1ccc2c(c1)/C(=N\OC[C@H]1CNC(=O)C1)C(C)(C)c1c(N)ncnc1-2 [Example 73, (4R)-4-[[(Z)-(4-amino-8-methoxy-5,5-dimethyl-benzo[h]quinazolin-6-ylidene)amino]oxymethyl]pyrrolidin-2-one] | 385 nM | > 2000 nM
CO/N=C1\c2cc(C[C@H]3CC[C@@H](N)CC3)ccc2-c2ncnc(N)c2C1(C)C [Example 75, (6Z)-8-[(cis-4-aminocyclohexyl)methyl]-6-methoxyimino-5,5-dimethyl-benzo[h]quinazolin-4-amine] | 3.4 nM | 472 nM
COc1ccc2c(c1)/C(=N\OC[C@H]1CC(=O)N(C)C1)C(C)(C)c1c(N)ncnc1-2 [Example 76, (4S)-4-[[(Z)-(4-amino-8-methoxy-5,5-dimethyl-benzo[h]quinazolin-6-ylidene)amino]oxymethyl]-1-methyl-pyrrolidin-2-one] | < 41 nM | > 2000 nM
CO/N=C1\c2cc(OC)cc(F)c2-c2ncnc(N)c2C1(C)C [Example 77, (6Z)-10-fluoro-8-methoxy-6-methoxyimino-5,5-dimethyl-benzo[h]quinazolin-4-amine] | 84.8 nM | > 2000 nM
C[C@@H](O)CO/N=C1\c2cc(O[C@H]3CC[C@H](N)CC3)ccc2-c2ncnc(N)c2C1(C)C [Example 78, (2R)-1-[(Z)-[4-amino-8-(trans-4-aminocyclohexoxy)-5,5-dimethyl-benzo[h]quinazolin-6-ylidene]amino]oxypropan-2-ol] | 66.3 nM | > 2000 nM
COCCO/N=C1\c2cc(Br)ccc2-c2ncnc(N)c2C1(C)C [Example 80, (6Z)-8-bromo-6-(2-methoxyethoxyimino)-5,5-dimethyl-benzo[h]quinazolin-4-amine] | 51.5 nM | > 2000 nM
CC1(C)/C(=N/OCCC#N)c2cc(Br)ccc2-c2ncnc(N)c21 [Example 81, 3-[(Z)-(4-amino-8-bromo-5,5-dimethyl-benzo[h]quinazolin-6-ylidene)amino]oxypropanenitrile] | 15.8 nM | > 2000 nM
CC1(C)/C(=N/O)c2cc(Br)ccc2-c2ncnc(N)c21 [Example 84, (Z)-4-amino-8-bromo-5,5-dimethyl-benzo[h]quinazolin-6-one oxime] | 10.6 nM | > 2000 nM
CC1(C)/C(=N\O)c2cc(Br)ccc2-c2ncnc(N)c21 [Example 85, (E)-4-amino-8-bromo-5,5-dimethyl-benzo[h]quinazolin-6-one oxime] | 125 nM | > 2000 nM
CC1(C)/C(=N/OCCO)c2cc(Br)ccc2-c2ncnc(N)c21 [Example 86, 2-[(Z)-(4-amino-8-bromo-5,5-dimethyl-benzo[h]quinazolin-6-ylidene)amino]oxyethanol] | 63 nM | > 2000 nM
CC1(C)/C(=N/OC[C@@H]2CNC(=O)O2)c2cc(C#N)ccc2-c2ncnc(N)c21 [Example 92, (6Z)-4-amino-5,5-dimethyl-6-[[(5S)-2-oxooxazolidin-5-yl]methoxyimino]benzo[h]quinazoline-8-carbonitrile] | 142 nM | > 2000 nM
CC1(C)/C(=N/OC[C@@H]2CNC(=O)O2)c2cc(OCCO)ccc2-c2ncnc(N)c21 [Example 94, (5S)-5-[[(Z)-[4-amino-8-(2-hydroxyethoxy)-5,5-dimethyl-benzo[h]quinazolin-6-ylidene]amino]oxymethyl]oxazolidin-2-one] | 18.6 nM | > 2000 nM
COCCO/N=C1\c2cc(N[C@H]3CC[C@H](N)CC3)ccc2-c2ncnc(N)c2C1(C)C [Example 95, (6Z)—N8-(trans-4-aminocyclohexyl)-6-(2-methoxyethoxyimino)-5,5-dimethyl-benzo[h]quinazoline-4,8-diamine] | 62.5 nM | 1040 nM
COCCO/N=C1\c2cc(N[C@H]3CC[C@@H](N)CC3)ccc2-c2ncnc(N)c2C1(C)C [Example 96, (6Z)—N8-(cis-4-aminocyclohexyl)-6-(2-methoxyethoxyimino)-5,5-dimethyl-benzo[h]quinazoline-4,8-diamine] | 43.6 nM | 670 nM
CC(=O)c1ccc2c(c1)/C(=N\OC[C@@H]1CNC(=O)O1)C(C)(C)c1c(N)ncnc1-2 [Example 98, (5S)-5-[[(Z)-(8-acetyl-4-amino-5,5-dimethyl-benzo[h]quinazolin-6-ylidene)amino]oxymethyl]oxazolidin-2-one] | 26 nM | > 2000 nM
